Consider 13 compounds from US12466829B2, “Spirocyclic piperidine melanocortin subtype-2 receptor (MC2R) antagonists and uses thereof” (Crinetics Pharmaceuticals, Inc., priority 2019, dated 2025).

T1 sequence (Q01718 whole entry): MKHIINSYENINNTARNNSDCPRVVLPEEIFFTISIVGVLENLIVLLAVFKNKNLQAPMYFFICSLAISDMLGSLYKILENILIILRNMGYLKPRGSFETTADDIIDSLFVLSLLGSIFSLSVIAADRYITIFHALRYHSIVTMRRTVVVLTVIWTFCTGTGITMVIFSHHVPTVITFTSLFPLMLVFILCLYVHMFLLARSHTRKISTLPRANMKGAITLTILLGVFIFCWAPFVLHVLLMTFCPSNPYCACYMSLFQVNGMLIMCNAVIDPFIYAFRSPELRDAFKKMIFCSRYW
T1 sequence (Q8TCY5 whole entry partner): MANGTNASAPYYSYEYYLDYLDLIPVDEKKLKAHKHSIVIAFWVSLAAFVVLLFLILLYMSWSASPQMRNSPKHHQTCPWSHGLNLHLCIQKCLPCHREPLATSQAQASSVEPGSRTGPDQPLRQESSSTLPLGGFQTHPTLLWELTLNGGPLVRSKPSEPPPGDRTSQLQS

This test concerns the target T1, hMC2 receptor (Homo sapiens, UniProt Q01718).
T1 construct: host or cells: CRE-bla-CHO-K1 cells
Kind of test: hMC2 membrane binding assay ([125I]ACTH (1-39) Tyr23, SPA). Conditions: crude membranes of CRE-bla-CHO-K1 cells expressing hMC2 receptor and hMRAP; 0.2 nM [125I]ACTH (1-39) Tyr23; 1.5 hours at room temperature; read-out: MC2R binding potency. The method in brief: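 Crude membranes from CRE-bla-CHO-K1 cells stably co-expressing hMC2R and hMRAP, preincubated with WGA PVT SPA beads in 50 mM HEPES, 5 mM MgCl2, 1 mM CaCl2, 0.2% BSA, protease inhibitors, pH 7.4. Competition against [125I]ACTH (1-39) Tyr23 read by scintillation; Ki from non-linear regression.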
Turning to `CCOc1ncccc1-c1ccc2c(n1)N([C@@H]1CCNC1)CC21CCN(c2ccc(C(F)(F)F)cc2C#N)CC1` [1-52, 2-[6′-(2-ethoxypyridin-3-yl)-1′-[(3R)-pyrrolidin-3-yl]-1′,2′-dihydrospiro[piperidine-4,3′-pyrrolo[2,3-b]pyridin]-1-yl]-5-(trifluoromethyl)benzonitrile], the Ki was under 10 nM.
Take `CCOc1ncccc1-c1ccc2c(c1)N(C(=O)CCN)CC21CCN(c2cc(C(F)(F)F)cc(C#N)n2)CC1` [1-24, 6-[1-(3-aminopropanoyl)-6-(2-ethoxypyridin-3-yl)-1,2-dihydrospiro[indole-3,4′-piperidin]-1′-yl]-4-(trifluoromethyl)pyridine-2-carbonitrile]: the Ki is 1000 to 10000 nM.
The figure for `CCOc1ncccc1-c1ccc2c(c1)N(CCN)C(=O)NC21CCN(c2ccc(C(F)(F)F)cc2C#N)CC1` [1-64, 2-[1′-(2-aminoethyl)-7′-(2-ethoxypyridin-3-yl)-2′-oxo-2′,3′-dihydro-1′H-spiro[piperidine-4,4′-quinazolin]-1-yl]-5-(trifluoromethyl)benzonitrile] is under 10 nM; for `CCOc1ncccc1-c1ccc2c(c1)N(C[C@H]1CCN1)CC21CCN(c2ccc(C(F)(F)F)cc2C#N)CC1` [1-38, 2-(1-{[(2R)-azetidin-2-yl]methyl}-6-(2-ethoxypyridin-3-yl)-1,2-dihydrospiro[indole-3,4′-piperidin]-1′-yl)-5-(trifluoromethyl)benzonitrile] it is 10 to 100 nM.
With `CCOc1ncccc1-c1ccc2c(n1)N(CCN)C(=O)C21CCN(c2ccc(C(F)(F)F)cc2C#N)CC1` [1-60, 2-[1′-(2-aminoethyl)-6′-(2-ethoxypyridin-3-yl)-2′-oxo-1′,2′-dihydrospiro[piperidine-4,3′-pyrrolo[2,3-b]pyridin]-1-yl]-5-(trifluoromethyl)benzonitrile], the Ki is under 10 nM.
Regarding `CCOc1ncccc1-c1ccc2c(c1)N(C(=O)NCCN)CC21CCN(c2ccc(C(F)(F)F)cc2C#N)CC1` [1-27, N-(2-aminoethyl)-1′-[2-cyano-4-(trifluoromethyl)phenyl]-6-(2-ethoxypyridin-3-yl)-1,2-dihydrospiro[indole-3,4′-piperidine]-1-carboxamide], the Ki lay in the range of 10 to 100 nM.
Turning to `CCOc1ncccc1-c1ccc2c(n1)N(C[C@@H](C)N)CC21CCN(c2ccc(C(F)(F)F)cc2C#N)CC1` [1-46, 2-{1′-[(2R)-2-aminopropyl]-6′-(2-ethoxypyridin-3-yl)-1′,2′-dihydrospiro[piperidine-4,3′-pyrrolo[2,3-b]pyridin]-1-yl}-5-(trifluoromethyl)benzonitrile], the Ki was under 10 nM.
With `CCOc1ncccc1-c1ccc2c(c1)N(C(=O)C[C@H](C)N)CC21CCN(c2ccc(C(F)(F)F)cc2C#N)CC1` [1-5, 2-{1-[(3 S)-3-aminobutanoyl]-6-(2-ethoxypyridin-3-yl)-1,2-dihydrospiro[indole-3,4′-piperidin]-1′-yl}-5-(trifluoromethyl)benzonitrile], the Ki fell in the range of 10 to 100 nM.
The figure for `CCOc1ncccc1-c1ccc2c(c1)N(C[C@@H](C)N)CC21CCN(c2ccc(C(F)(F)F)cc2C#N)CC1` [1-13, 2-{1-[(2R)-2-aminopropyl]-6-(2-ethoxypyridin-3-yl)-1,2-dihydrospiro[indole-3,4′-piperidin]-1′-yl}-5-(trifluoromethyl)benzonitrile] is under 10 nM; for `CCOc1ncccc1-c1ccc2c(c1)N(C(=O)CCN)CC21CCN(c2ccc(OC)nc2C#N)CC1` [1-43, 3-[1-(3-aminopropanoyl)-6-(2-ethoxypyridin-3-yl)-1,2-dihydrospiro[indole-3,4′-piperidin]-1′-yl]-6-methoxypyridine-2-carbonitrile] it is 10 to 100 nM.
On to `CCOc1ccccc1-c1ccc2c(c1)N(C(=O)CN)CC21CCN(c2ccc(C(F)(F)F)cc2C#N)CC1` [1-2, 2-[1-(2-aminoacetyl)-6-(2-ethoxyphenyl)-1,2-dihydrospiro[indole-3,4′-piperidin]-1′-yl]-5-(trifluoromethyl)benzonitrile], for which the Ki lay within 10 to 100 nM.
Consider `CCOc1ncccc1-c1ccc2c(c1)N(C(=O)CCCN)CC21CCN(c2ccc(C(F)(F)F)cc2C#N)CC1` [1-11, 2-[1-(4-aminobutanoyl)-6-(2-ethoxypyridin-3-yl)-1,2-dihydrospiro[indole-3,4′-piperidin]-1′-yl]-5-(trifluoromethyl)benzonitrile], for which the Ki lay in the range of 10 to 100 nM.
Take `CCOc1ncccc1-c1ccc2c(c1)N([C@H]1CCNC1)C(=O)C21CCN(c2ccc(C(F)(F)F)cc2C#N)CC1` [1-17, 2-[6-(2-ethoxypyridin-3-yl)-2-oxo-1-[(3S)-pyrrolidin-3-yl]-1,2-dihydrospiro[indole-3,4′-piperidin]-1′-yl]-5-(trifluoromethyl)benzonitrile]: the Ki lay within 10 to 100 nM.
